This note sets out measurements from patent publication US20050107437A1, “Novel herbicides” (priority 2001, published 2005).

Structures are written as SMILES.

Holding throughout (type): in vivo
For test [1], the system named is Echinochloa (Ds) (Echino). The test can be described thus: Post-emergence herbicidal action (Example B2). The following applies: 1000 g of active ingredient/ha, evaluated after 2 to 3 weeks, scale 1-9. As to the method:
(§1) Monocotyledonous and dicotyledonous test plants are sown in standard soil in pots. When the test plants are at the 2- to 3-leaf stage, the test compounds, in the form of an aqueous suspension (prepared from a wettable powder (Example F3, b) according to WO 97/34485) or in the form of an emulsion (prepared from an emulsifiable concentrate (Example F1, c) according to WO 97/34485), are applied by spraying in an optimum concentration (500 litres of water/ha). The test plants are then grown on in a greenhouse under optimum conditions. After a test duration of 2 to 3 weeks, the test is evaluated in accordance with a scale of nine ratings (1=total damage, 9=no action). Ratings of from 1 to 4 (especially from 1 to 3) indicate good to very good herbicidal action. Test plants: Setaria (Seta), Panicum (Pani), Echinochloa (Ds) (Echino), Amaranthus (Amar), Chenopodium (Cheno), Stellaria (Stella), Veronica, Euphorbia (Eupho).

The subject of test [2] is Chenopodium (Cheno). The test can be described thus: Post-emergence herbicidal action (Example B2). To be noted: 1000 g of active ingredient/ha, evaluated after 2 to 3 weeks, scale 1-9. The protocol:
as §1

For test [3], the system named is Setaria (Seta). The test can be described thus: Post-emergence herbicidal action (Example B2). The following applies: 1000 g of active ingredient/ha, evaluated after 2 to 3 weeks, scale 1-9. As to the method:
as §1

Test [4] deals with Panicum (Pani). Description: Post-emergence herbicidal action (Example B2). The following applies: 1000 g of active ingredient/ha, evaluated after 2 to 3 weeks, scale 1-9. As to the method:
as §1

The test system of test [5] is Amaranthus (Amar). Description: Post-emergence herbicidal action (Example B2). Set-up: key: 1=total damage; 9=no action; Ratings of from 1 to 4 (especially from 1 to 3) indicate good to very good herbicidal action. To be noted: 1000 g of active ingredient/ha, evaluated after 2 to 3 weeks, scale 1-9. The protocol:
as §1

The subject of test [6] is Euphorbia (Eupho). The test can be described thus: Post-emergence herbicidal action (Example B2). Also on record: key: 1=total damage; 9=no action; Ratings of from 1 to 4 (especially from 1 to 3) indicate good to very good herbicidal action. To be noted: 1000 g of active ingredient/ha, evaluated after 2 to 3 weeks, scale 1-9. As to the method: as §1
Test [7] relates to Echinochloa (Ds) (Echino). Description: Pre-emergence herbicidal action (Example B1). Set-up: key: 1=total damage; 9=no action; Ratings of from 1 to 4 (especially from 1 to 3) indicate good to very good herbicidal action. To be noted: 1000 g of active ingredient/ha, 4 weeks, scale of nine ratings. The protocol: as §1, with “Immediately after sowing,” for “When the test plants are at the 2- to 3-leaf stage,”, “grown” for “grown on”, “4” for “2 to 3”, “(Eupho), Brachiaria (Brachi).” for “(Eupho).”

For another test, the system named is Brachiaria (Brachi). Description: Pre-emergence herbicidal action (Example B1). Set-up: key: 1=total damage; 9=no action; Ratings of from 1 to 4 (especially from 1 to 3) indicate good to very good herbicidal action. The following applies: 1000 g of active ingredient/ha, 4 weeks, scale of nine ratings. The protocol:
as §1, with “Immediately after sowing,” for “When the test plants are at the 2- to 3-leaf stage,”, “grown” for “grown on”, “4” for “2 to 3”, “(Eupho), Brachiaria (Brachi).” for “(Eupho).”

Test [8] relates to Setaria (Seta). The test can be described thus: Pre-emergence herbicidal action (Example B1). Also on record: key: 1=total damage; 9=no action; Ratings of from 1 to 4 (especially from 1 to 3) indicate good to very good herbicidal action. To be noted: 1000 g of active ingredient/ha, 4 weeks, scale of nine ratings. The protocol:
as §1, with “Immediately after sowing,” for “When the test plants are at the 2- to 3-leaf stage,”, “grown” for “grown on”, “4” for “2 to 3”, “(Eupho), Brachiaria (Brachi).” for “(Eupho).”

The test system of test [9] is Panicum (Pani). Description: Pre-emergence herbicidal action (Example B1). Also on record: key: 1=total damage; 9=no action; Ratings of from 1 to 4 (especially from 1 to 3) indicate good to very good herbicidal action. To be noted: 1000 g of active ingredient/ha, 4 weeks, scale of nine ratings. The protocol:
as §1, with “Immediately after sowing,” for “When the test plants are at the 2- to 3-leaf stage,”, “grown” for “grown on”, “4” for “2 to 3”, “(Eupho), Brachiaria (Brachi).” for “(Eupho).”

In test [10] the test system is Amaranthus (Amar). Description: Pre-emergence herbicidal action (Example B1). Also on record: key: 1=total damage; 9=no action; Ratings of from 1 to 4 (especially from 1 to 3) indicate good to very good herbicidal action. The following applies: 1000 g of active ingredient/ha, 4 weeks, scale of nine ratings. The protocol: as §1, with “Immediately after sowing,” for “When the test plants are at the 2- to 3-leaf stage,”, “grown” for “grown on”, “4” for “2 to 3”, “(Eupho), Brachiaria (Brachi).” for “(Eupho).”

The test system of test [11] is Euphorbia (Eupho). The test can be described thus: Pre-emergence herbicidal action (Example B1). Set-up: key: 1=total damage; 9=no action; Ratings of from 1 to 4 (especially from 1 to 3) indicate good to very good herbicidal action. To be noted: 1000 g of active ingredient/ha, 4 weeks, scale of nine ratings. As to the method: as §1, with “Immediately after sowing,” for “When the test plants are at the 2- to 3-leaf stage,”, “grown” for “grown on”, “4” for “2 to 3”, “(Eupho), Brachiaria (Brachi).” for “(Eupho).”

Test [12] has as its system Veronica. The test can be described thus: Pre-emergence herbicidal action (Example B1). To be noted: 1000 g of active ingredient/ha, 4 weeks, scale of nine ratings. The protocol: as §1, with “Immediately after sowing,” for “When the test plants are at the 2- to 3-leaf stage,”, “grown” for “grown on”, “4” for “2 to 3”, “(Eupho), Brachiaria (Brachi).” for “(Eupho).”
Test [13] deals with Veronica. The test can be described thus: Post-emergence herbicidal action (Example B2). The following applies: 1000 g of active ingredient/ha, evaluated after 2 to 3 weeks, scale 1-9. The protocol: as §1
Test [14] has as its system Stellaria (Stella). The test can be described thus: Post-emergence herbicidal action (Example B2). To be noted: 1000 g of active ingredient/ha, evaluated after 2 to 3 weeks, scale 1-9. As to the method: as §1
The test system of test [15] is Chenopodium (Cheno). Description: Pre-emergence herbicidal action (Example B1). Set-up: key: 1=total damage; 9=no action; Ratings of from 1 to 4 (especially from 1 to 3) indicate good to very good herbicidal action. To be noted: 1000 g of active ingredient/ha, 4 weeks, scale of nine ratings. The protocol:
as §1, with “Immediately after sowing,” for “When the test plants are at the 2- to 3-leaf stage,”, “grown” for “grown on”, “4” for “2 to 3”, “(Eupho), Brachiaria (Brachi).” for “(Eupho).”

Test [16] deals with Stellaria (Stella). Description: Pre-emergence herbicidal action (Example B1). To be noted: 1000 g of active ingredient/ha, 4 weeks, scale of nine ratings. Also on record: key: 1=total damage; 9=no action; Ratings of from 1 to 4 (especially from 1 to 3) indicate good to very good herbicidal action. The protocol:
as §1, with “Immediately after sowing,” for “When the test plants are at the 2- to 3-leaf stage,”, “grown” for “grown on”, “4” for “2 to 3”, “(Eupho), Brachiaria (Brachi).” for “(Eupho).”

`COc1cc(Cl)cnc1OCC#Cc1cccc(OCC#N)n1` [1.063, 2-[3-(6-cyanomethoxy-pyrid-2-yl)-prop-2-ynyloxy]-5-chloro-3-methoxypyridine]: the “Post-emergence herbicidal action rating, Echino (Ds)” value in [1] is 3. In the test on Chenopodium (Cheno) [2], the “Post-emergence herbicidal action rating, Cheno” value is 2. Moreover, the “Post-emergence herbicidal action rating, Seta” value with Setaria (Seta) [3] came out at 5. Moreover, the “Post-emergence herbicidal action rating, Pani” value in the test with Panicum (Pani) [4] came to 3. Further, the “Post-emergence herbicidal action rating, Amar” value in the test on Amaranthus (Amar) [5] stood at 2. For the same molecule, in the test on Euphorbia (Eupho) [6], the “Post-emergence herbicidal action rating, Eupho” value is on record as 1. For the same molecule, the “Herbicidal rating Echino (Ds)” value in test [7] worked out at 4. The “Herbicidal rating Brachi” value in the test on Brachiaria (Brachi) worked out at 1. Further, the “Herbicidal rating Seta” value in the test with Setaria (Seta) [8] came out at 2. Moreover, the “Herbicidal rating Pani” value with Panicum (Pani) [9] is recorded as 1. In the test with Amaranthus (Amar) [10], the “Herbicidal rating Amar” value was found to be 1. Further, the “Herbicidal rating Eupho” value in the test with Euphorbia (Eupho) [11] is reported as 1.
On to `COc1cc(F)cnc1OCC#Cc1ccc(Cl)nc1` [2.005, 2-[3-(6-chloro-pyrid-3-yl)-prop-2-ynyloxy]-5-fluoro-3-methoxy-pyridine], for which the “Herbicidal rating Veronica” value in the test with Veronica [12] amounted to 4. The “Post-emergence herbicidal action rating, Cheno” value in the test on Chenopodium (Cheno) [2] came out at 3. Also, the “Post-emergence herbicidal action rating, Seta” value in the test with Setaria (Seta) [3] amounted to 3. Moreover, the “Post-emergence herbicidal action rating, Pani” value with Panicum (Pani) [4] came to 4. Also, in the test with Veronica [13], the “Post-emergence herbicidal action rating, Veronica” value stood at 2. The “Post-emergence herbicidal action rating, Stella” value in the test with Stellaria (Stella) [14] was determined as 2. Also, the “Post-emergence herbicidal action rating, Amar” value in the test on Amaranthus (Amar) [5] was 1. The “Post-emergence herbicidal action rating, Eupho” value in the test on Euphorbia (Eupho) [6] is given as 1. In test [7], the “Herbicidal rating Echino (Ds)” value amounted to 1. Also, the “Herbicidal rating Brachi” value in the test with Brachiaria (Brachi) amounted to 1. The “Herbicidal rating Cheno” value in the test with Chenopodium (Cheno) [15] was found to be 1. For the same molecule, the “Herbicidal rating Seta” value in the test with Setaria (Seta) [8] is given as 4. Further, the “Herbicidal rating Pani” value in the test with Panicum (Pani) [9] came out at 4. The “Herbicidal rating Stella” value in the test with Stellaria (Stella) [16] is 1. The “Herbicidal rating Eupho” value in the test with Euphorbia (Eupho) [11] is listed as 5.
With `COc1cc(Cl)cnc1OCC#Cc1ccc(Cl)nc1` [2.006, 5-chloro-2-[3-(6-chloro-pyrid-3-yl)-prop-2-ynyloxy]-3-methoxy-pyridine], the “Herbicidal rating Veronica” value in the test with Veronica [12] worked out at 5. Also, in the test with Chenopodium (Cheno) [2], the “Post-emergence herbicidal action rating, Cheno” value worked out at 2. Further, the “Post-emergence herbicidal action rating, Seta” value in the test with Setaria (Seta) [3] is 2. The “Post-emergence herbicidal action rating, Pani” value in the test with Panicum (Pani) [4] is on record as 2. The “Post-emergence herbicidal action rating, Veronica” value in the test with Veronica [13] is given as 2. In addition, the “Post-emergence herbicidal action rating, Stella” value in the test with Stellaria (Stella) [14] is 2. The “Post-emergence herbicidal action rating, Amar” value in the test with Amaranthus (Amar) [5] is 2. Further, the “Post-emergence herbicidal action rating, Eupho” value with Euphorbia (Eupho) [6] worked out at 1. Moreover, the “Herbicidal rating Echino (Ds)” value in test [7] was 1. In the test with Brachiaria (Brachi), the “Herbicidal rating Brachi” value is 1. Further, the “Herbicidal rating Seta” value in the test with Setaria (Seta) [8] is reported as 1. For the same molecule, in the test on Panicum (Pani) [9], the “Herbicidal rating Pani” value was 1. For the same molecule, the “Herbicidal rating Amar” value in the test on Amaranthus (Amar) [10] is given as 1. The “Herbicidal rating Stella” value in the test with Stellaria (Stella) [16] stood at 1. In the test on Euphorbia (Eupho) [11], the “Herbicidal rating Eupho” value was found to be 1.
